Patent US20030165486A1, “Compositions and methods for the induction of retinal detachments” (priority 1999, published 2003)
Read-outs that look alike come from different tables or passages of the source.

Assays:
eyes of rabbits = system: eyes of rabbits
Protocol: Fifty-two (52) healthy rabbits of the New Zealand Cross variety (26 male, 26 female) weighing 1.5 kg to 2.5 kg were individually marked for identification and were housed individually in suspended cages. The animals received a commercially available pelleted rabbit feed on a daily basis, with tap water available ad libitum.
Two animals in each group (1 male, 1 female) were selected for pretreatment fundus photography and fluorescein angiography.
The fundus photography was performed by restraining the animals and visualizing the optic nerve, retinal arcades and fundus with a KOWA® RC-3 Fundus Camera loaded with Kodak Gold 200 ASA film.
The fluorescein angiography involved a 1.5-ml injection of 2% sterile fluorescein solution via the marginal ear vein. Approximately 30 seconds post-injection the fluorescein was visualized upon localization of the optic nerve, retinal vessels and fundus.
The following day, each animal was anesthetized by intravenous administration of a combination of 34 mg/kg of ketamine hydrochloride and 5-mg/kg xylazine. The eyelids were retracted using a lid speculum, and the eyes were disinfected with an iodine-povidone wash.
The experimental treatments administered to each animal group were as follows:
The day following the injections (Day 1) the 26 animals, which were subjected to the fundus photography and fluorescein angiography, were observed using the same methods as for the pre-dose examination.
Alternatively, one randomly selected rabbit was euthanized by pentobarbital injection but then fixed by intracardiac injection of the gluteraldehyde solution into the left ventricle to determine the effect of the fixation procedure on the histology findings within the enucleated eyes.
On Day 7, the 13 female rabbits that had been previously photographed and angiography performed were subjected to same observations following the methods previously described.
The remaining 26 animals were euthanized as described above 7 days after dosing. The eyes were fixed in the same manner as those, which had been fixed on day 2. […]

detached retinas of cats = assay: Protection of surgically detached retina from degeneration in adult cats (Example 6); format: in vivo, adult cats (Felis domesticus); conditions: 100 μl of Table 5 formulation 6 hours after detachment, 3 days
Protocol: The study is performed on 15 adult cats (Felis domesticus) and modeled generally on the study of Mervin, et al., “Limiting Photoreceptor Death and Deconstruction During Experimental Retinal Detachment: The Value of Oxygen Supplementation,” Am. J. Ophthal. 128:155-164 (1999). Unlike the Mervin study however, the present experiment examines the effect of hyaluronidase administration to prevent photoreceptor death rather than the effect of supplemental oxygen administration.
Three groups of five adult domestic cats (Experimental Group I, Experimental Group II, and Control Group I) are anesthetized using 10 mg/kg of xylazine (Boehringer Ingelheim Vetmedica, Inc., St. Joseph, Mo.) and 50 mg/kg of ketamine (Sigma, St. Louis, Mo.). The surgical method of Anderson, et al., (Invest. Ophthalmol. Vis. Sci. 27:168-183 (1986)) is used to induce retinal detachment in two experimental groups of 5 cats each, however, the lens and vitreous of these cats are left in place during the surgical procedure.
During the procedure, a glass micropipette is introduced through a 20-gauge hole in the sclera at the region of the pars plana. A balanced salt solution (BSS) containing 0.25% sodium hyaluronate is then infused between the neural retina and retinal pigment epithelium. A single detachment is produced in the right eye of each of the 10 cats.
The experimental groups are allowed to recover for six hours. […]

retina of rabbit eyes [1] = format: in vivo; conditions: for Electro Retinography Results / Histological and Electron Microscopic Results / Retinal Detachment at 48 hours Post 2nd Injection / Retinal Reattachment at 3 weeks Post 2nd Injection: 50 μl of 75 I.U. hyaluronidase intravitreally, 3 days later 50 μl sterile PEG, n = 6; for Retinal Detachment at 48 hours Post 2nd Injection / Retinal Reattachment at 3 weeks Post 2nd Injection: fundus photos, β scans; for safety by indirect ophthalmoscopy, fundus photography, light and electron microscopy and electroretinography: intravitreal hyaluronidase followed by intravitreal PEG
Protocol: In this study, 12-pigmented rabbits were divided into 2 groups of 6 animals each. Group I consisted of six animals that were injected OD with PEG 300. […] As a control, these same animals received saline injections OS and thus served as a control group (Group Ia).
Group II consisted of six animals that were injected that were injected OD with PEG 400. […] As a control, these same animals received saline injections OS and thus served as a control group (Group IIa).
During this procedure a number of ophthalmic methodologies were utilized to monitor the effects and progress of the various experimental treatments. For example, indirect ophthalmoscopy was utilized by a retinal specialist to determine the effects of administering a retinal detaching dose of the compounds disclosed. […] Light microscopy and electron microscopy of eye samples was used to determine the effect of the treatments from a histological perspective. Ultrasonography techniques were used to objectively determine the presence of retinal detachment. Additionally, electroretinography was performed to determine changes due to treatment.

retina of rabbit eyes [2] = assay: Induction of reversible retinal detachment in rabbits using varying concentration of PEG 300 (Example 5); format: in vivo
Protocol: In this study, 8-pigmented rabbits were divided into 4 groups of 2 animals each. Group I consisted of 2 animals treated with 100% PEG 300. As performed in Example 1, these animals were first injected intravitreally (OD) with 50 μl of 75 I.U. of Hyaluronidase solution (Group I). Fourteen days after the first injection these animals received 50 μl of 100% sterile PEG 300 intravitreally. The OS eye was used as the untreated control as described in Example 1 (Group Ia). A second group of two animals, Group II, was first injected intravitreally (OD) with 50 μl of 75 I.U. of Hyaluronidase solution and then injected 14 days later with 50 μl of sterile 75% solution of PEG 300 intravitreally. The OS eyes of these animals were used as the untreated controls (Group IIa). […] were treated according to the same protocols as described for Groups I, Ia, II, and IIa with the exception that Group III received 50 μl of 50% sterile solution of PEG 300 intravitreally. Similarly, Groups IV and IVa were treated according to the same protocols as described above, however, Group IV received 50 μl of 25% sterile solution of PEG 300 intravitreally.
All retinal detachments and retinal re-attachments were documented using Fundus Photography and Ultrasonography (β-Scan). In addition, 3 rabbit eyes were enucleated and the eyes were prepared for light microscopy as well as for Electron Microscopy.

[3] = 75 I.U. hyaluronidase, 14 days later varying concentrations of PEG 300
[4] = Groups I-IV OD: 75 I.U. hyaluronidase, 14 days later 50 μl sterile 100%, 75%, 50% or 25% PEG 300, fundus photos, β scans

Compound	treatment-related toxicities, eyes examined grossly and microscopically (eyes of rabbits; Group 2, BSS+thimerosal 0.0075 mg, day 2)	treatment-related toxicities, eyes examined grossly and microscopically (eyes of rabbits; Group 2, BSS+thimerosal 0.0075 mg, day 7)	treatment-related toxicities, eyes examined grossly and microscopically (eyes of rabbits; Group 3, BSS+thimerosal 0.025 mg, day 2 and 7 post dose)	thickness of the outer nuclear layer after retinal detachment surgery (detached retinas of cats)	Electro Retinography Results (retina of rabbit eyes [1])	Histological and Electron Microscopic Results (retina of rabbit eyes [1])	Retinal Detachment at 48 hours Post 2nd Injection (retina of rabbit eyes [1])	Retinal Reattachment at 3 weeks Post 2nd Injection (retina of rabbit eyes [1])	safety by indirect ophthalmoscopy, fundus photography, light and electron microscopy and electroretinography (retina of rabbit eyes [1])	time to induced retinal detachment after second intravitreal injection (retina of rabbit eyes [2]; [3])	time to spontaneous retinal re-attachment after the PEG injection (retina of rabbit eyes [2]; [3])	Retinal Detachment At 48 hours Post 2nd Injection (retina of rabbit eyes [2]; [4])	Retinal Reattachment At 3 weeks Post 2nd Injection (retina of rabbit eyes [2]; [4])	Histological and Electron Microscopic Results (retina of rabbit eyes [2]; Groups I-IV OD: 100%, 75%, 50% or 25% PEG 300, 3 enucleated eyes)	Electro Retinography Results (retina of rabbit eyes [2]; Groups I-IV OD: 100%, 75%, 50% or 25% PEG 300, after retinal detachment and spontaneous re-attachment 3 weeks later)	safety / toxicity of intravitreal injection (retina of rabbit eyes [2]; hyaluronidase followed by PEG 300 at 100%, 75%, 50% and 25% in saline vehicle)
C[CH2][Hg][S]c1ccccc1C(=O)[O-].[Na+] [thimerosal]	free of toxicity	breakdown of the blood retinal barrier	severe treatment-related toxic effects													
Polyethylene Glycol 300 [PEG 300]				Thinning of the outer nuclear layer is observed	Normal	Normal	All	All	safe and without causing any toxicity	≤ 48 h	≤ 3 weeks	All	All	No Adverse	No Adverse	safe and without causing any toxicity
Polyethylene Glycol 400 [PEG 400]					Normal	Normal	All	All	safe and without causing any toxicity							
